# Laboratory results as given in US20160367622A1, “AGONISTS OF GUANYLATE CYCLASE USEFUL FOR THE TREATMENT OF OPIOID INDUCED DYSFUNCTIONS” (priority 2013, published 2016).
# Entries after “also recorded” stand apart in the source; their conditions may differ. Positions of bridges follow the written chain, without caps; N, C: chain ends. Non-standard residues stand in square brackets, D forms with d. Residues, ends and D or L forms follow the SMILES beside them.
# Assays:
# [1] = system: female Sprague-Dawley CD rats; assay: methadone-induced constipation in rats (fecal output); assay type: in vivo, rat
# Method: To identify the methadone dose that induces constipation in rats, female Sprague-Dawley CD rats 7 to 8 weeks of age (n=6/group) were administered 0 (vehicle), 2.5, 5, and 7.5 mg/kg of methadone (1.5 ml/kg dose volume) by IP injection once a day for 5 days. Fecal pellets were collected at 4 h intervals during the light cycle and average number of pellets was recorded for each group during the course of the study following daily dose administrations of methadone.
# To evaluate the ability of SP-333 to relieve methadone-induced constipation, female Sprague-Dawley CD rats 7 to 8 weeks of age (n=7/group) were administered 5 mg/kg of methadone (or vehicle) each day for 7 days via IP injection to induce constipation. Ten minutes following the IP dose each day, an oral gavage of 2.5, and 5 mg/kg of SP-333 or vehicle (buffer) was administered. Fecal pellets were collected at 4 h intervals during the light cycle and average number of pellets recorded for each group during the course of the study following daily administration of vehicle, methadone or combination of methadone and SP-333.
# [2] = system: patients with symptoms of OIC treated for non-malignant chronic pain with opioid therapy; assay: randomized 4-week placebo-controlled dose-ranging study in OIC: efficacy; assay type: in vivo, human; conditions: for Week 4 change from baseline in SBMs, LS Mean (SE) / Week 4 change from baseline in SBMs, Mean (SD): observed cases, mITT population
# From the text: (§1) A Randomized, 4-Week, Double-Blind, Placebo-Controlled, Dose-Ranging Study to Assess the Safety and Efficacy of Sp-333 for the Treatment of Opioid-Induced Constipation (OIC) in Patients with Non-Malignant Chronic Pain Receiving Opioid Therapy
# To evaluate the clinical efficacy of SP-333 compared with placebo, in patients with symptoms of OIC who have been treated for non-malignant chronic pain with opioid therapy.
# (§2) The primary efficacy endpoint was to determine the mean change from baseline in the number of […] (SBMs) during Week 4 of the Treatment Period. Safety was assessed by analysis of the frequency of treatment-emergent adverse events (TEAEs), adverse events leading to withdrawal, and serious adverse events (SAEs).
# [3] = system: patients with symptoms of OIC treated for non-malignant chronic pain with opioid therapy; assay: randomized 4-week placebo-controlled dose-ranging study in OIC: safety; assay type: in vivo, human; conditions: for All AEs: preliminary safety top line
# From the text: as §1
# To assess the safety and tolerability of SP-333. To evaluate the pharmacodynamic effects of SP-333. To evaluate the pharmacokinetic properties of SP-333.
# as §2
smiles,measurement,setting,value
"CC(C)C[C@@H]1NC(=O)[C@H](CCC(=O)O)NC(=O)[C@@H](NC(=O)[C@H](CCC(=O)O)NC(=O)[C@H](CC(=O)O)NC(=O)[C@H](N)CC(N)=O)CSSC[C@@H]2NC(=O)[C@H](C)NC(=O)[C@H](C(C)C)NC(=O)[C@H](CC(N)=O)NC(=O)[C@H](C(C)C)NC(=O)[C@H](CSSC[C@@H](C(=O)N[C@H](CC(C)C)C(=O)O)NC(=O)CNC(=O)[C@H]([C@@H](C)O)NC2=O)NC1=O [SP-333, dAsn^1-Asp^2-Glu^3-Cys^4-Glu^5-Leu^6-Cys^7-Val^8-Asn^9-Val^10-Ala^11-Cys^12-Thr^13-Gly^14-Cys^15-dLeu^16] (H-[dN]DECELCVNVACTGC[dL]-OH; disulfide 4-12, 7-15)",pellet count compared to the methadone dosed group,"[1]; SP-333 2.5 mg/kg oral daily 10 min after methadone (5 mg/kg 7 days, then 2.5 mg/kg days 8-16)",threefold increase; also recorded: significantly relieved methadone-induced constipation
same,average number of pellets / fecal output compared to the methadone dosed group,"[1]; SP-333 2.5 and 5 mg/kg oral daily after methadone (5 mg/kg 7 days, then 2.5 mg/kg days 8-16)",partially restored fecal output; also recorded: higher compared to the methadone dosed group
same,primary endpoint (mean change from baseline in SBMs during Week 4),[2]; 3 mg and 6 mg doses,statistically significant improvement
same,"Week 4 change from baseline in SBMs, Difference from Placebo",[2]; SP-333 1 mg,0.613 SBMs/week
same,"Week 4 change from baseline in SBMs, LS Mean (SE)",[2]; SP-333 1 mg,2.436 (0.3800) SBMs/week
same,"Week 4 change from baseline in SBMs, Mean (SD)",[2]; SP-333 1 mg,2.429 (2.7363) SBMs/week
same,"Week 4 change from baseline in SBMs, Difference from Placebo",[2]; SP-333 3 mg,1.405 SBMs/week
same,"Week 4 change from baseline in SBMs, LS Mean (SE)",[2]; SP-333 3 mg,3.227 (0.3858) SBMs/week
same,"Week 4 change from baseline in SBMs, Mean (SD)",[2]; SP-333 3 mg,3.210 (3.8524) SBMs/week
same,"Week 4 change from baseline in SBMs, Difference from Placebo",[2]; SP-333 6 mg,1.528 SBMs/week
same,"Week 4 change from baseline in SBMs, LS Mean (SE)",[2]; SP-333 6 mg,3.351 (0.3919) SBMs/week
same,"Week 4 change from baseline in SBMs, Mean (SD)",[2]; SP-333 6 mg,3.379 (3.1424) SBMs/week
same,Diarrhea,[3]; 1 mg (n 74),3 (4%) n (%)
same,Diarrhea Drop,[3]; 1 mg (n 74),0 (0%) n (%)
same,Drops for AE,[3]; 1 mg (n 74),1 (1.4%) n (%)
same,All AEs,[3]; 1 mg (n 74),19 (25.7%) n (%)
same,patients with TEAE leading to study treatment discontinuation,[3]; 1 mg group,1.4%
same,Diarrhea,[3]; 3 mg (n 70),4 (5.4%) n (%)
same,Diarrhea Drop,[3]; 3 mg (n 70),0 (0%) n (%)
same,Drops for AE,[3]; 3 mg (n 70),2 (2.9%) n (%)
same,serious adverse events: Chest Pain,[3]; 3 mg (n 70),1 (1.4%) n (%)
same,All AEs,[3]; 3 mg (n 70),16 (22.9%) n (%)
same,patients with TEAE leading to study treatment discontinuation,[3]; 3 mg group,2.9%
same,Diarrhea,[3]; 6 mg (n 72),7 (9.7%) n (%)
same,Diarrhea Drop,[3]; 6 mg (n 72),2 (2.9%) n (%)
same,Drops for AE,[3]; 6 mg (n 72),5 (6.9%) n (%)
same,serious adverse events: Death (metastatic HCC),[3]; 6 mg (n 72),1 (1.4%) n (%)
same,All AEs,[3]; 6 mg (n 72),23 (31.9%) n (%)
same,patients with TEAE leading to study treatment discontinuation,[3]; 6 mg group,6.9%
same,percentage of patients experiencing at least 1 TEAE,[3]; SP-333 1 mg (placebo 27.4%),25.7%
same,percentage of patients experiencing at least 1 TEAE,[3]; SP-333 3 mg (placebo 27.4%),22.9%
same,percentage of patients experiencing at least 1 TEAE,[3]; SP-333 6 mg (placebo 27.4%),31.9%
same,most frequently reported TEAE,[3]; in vivo,diarrhea
